Measured values reported in patent US20250059217A1, “HETEROCYCLIC COMPOUNDS AND METHODS OF PREPARATION THEREOF” (priority 2021, published 2025).
Read-outs that look alike come from different tables or passages of the source.

Key:
[1] = target: T1, 5-HT2A receptor (Homo sapiens, UniProt P28223); test: Serotonin receptor 5-HT2 functional assay (Gq dissociation BRET or Gq-dependent calcium flux), 5-HT2A; type: cell-based; conditions: for 5-HT2A BRET Eff %: efficacy relative to 4-hydroxytryptamine
T1 construct: expressed in transfected cells; host or cells: HEK293T

[2] = target: T2, 5-HT2B receptor (Homo sapiens, UniProt P41595); test: Serotonin receptor 5-HT2 functional assay (Gq dissociation BRET or Gq-dependent calcium flux), 5-HT2B; type: cell-based; conditions: Table 4, at least three replicate trials; for 5-HT2B BRET Eff %: efficacy relative to 4-hydroxytryptamine; for EC50 / 5-HT2B BRET EC50 (nM): relative to 4-hydroxytryptamine
T2 construct: expressed in transfected cells; host or cells: HEK293T

[3] = target: T3, 5-HT2C receptor (Homo sapiens, UniProt P28335); test: cell-based
T3 construct: expressed in transfected cells; host or cells: HEK293T
T3 sequence (P28335 33-458): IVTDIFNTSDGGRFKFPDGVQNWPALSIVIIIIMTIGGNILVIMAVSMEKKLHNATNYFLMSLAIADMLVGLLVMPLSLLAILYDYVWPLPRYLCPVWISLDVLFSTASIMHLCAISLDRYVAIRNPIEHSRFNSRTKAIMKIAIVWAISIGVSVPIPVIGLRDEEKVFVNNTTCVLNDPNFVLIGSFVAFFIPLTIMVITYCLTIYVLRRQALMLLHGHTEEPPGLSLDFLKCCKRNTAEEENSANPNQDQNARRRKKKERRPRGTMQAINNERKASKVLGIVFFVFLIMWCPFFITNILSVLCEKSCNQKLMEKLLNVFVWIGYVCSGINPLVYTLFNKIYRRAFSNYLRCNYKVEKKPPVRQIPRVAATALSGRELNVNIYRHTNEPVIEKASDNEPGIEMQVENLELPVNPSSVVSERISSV

[4] = Table 4, at least three replicate trials
[5] = Table 4, relative to 4-hydroxytryptamine, at least three replicate trials, read-out: 5-HT2A BRET EC50
[6] = Table 4, efficacy relative to 4-hydroxytryptamine, at least three replicate trials
[7] = Table 4, relative to 4-hydroxytryptamine, at least three replicate trials, read-out: 5-HT2C BRET EC50

T1 sequence (P28223 whole entry): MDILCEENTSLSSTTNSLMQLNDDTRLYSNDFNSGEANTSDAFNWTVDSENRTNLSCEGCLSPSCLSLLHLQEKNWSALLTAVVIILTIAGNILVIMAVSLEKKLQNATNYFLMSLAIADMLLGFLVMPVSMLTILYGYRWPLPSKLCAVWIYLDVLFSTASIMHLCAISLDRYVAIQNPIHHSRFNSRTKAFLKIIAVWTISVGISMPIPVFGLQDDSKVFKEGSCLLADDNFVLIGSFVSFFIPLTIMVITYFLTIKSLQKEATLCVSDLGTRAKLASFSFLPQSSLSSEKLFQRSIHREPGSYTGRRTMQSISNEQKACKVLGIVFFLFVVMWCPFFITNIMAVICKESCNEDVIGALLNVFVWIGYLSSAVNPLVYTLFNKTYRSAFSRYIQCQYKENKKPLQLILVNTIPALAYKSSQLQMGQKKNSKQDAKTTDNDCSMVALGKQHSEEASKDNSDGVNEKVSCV
T2 sequence (P41595 whole entry): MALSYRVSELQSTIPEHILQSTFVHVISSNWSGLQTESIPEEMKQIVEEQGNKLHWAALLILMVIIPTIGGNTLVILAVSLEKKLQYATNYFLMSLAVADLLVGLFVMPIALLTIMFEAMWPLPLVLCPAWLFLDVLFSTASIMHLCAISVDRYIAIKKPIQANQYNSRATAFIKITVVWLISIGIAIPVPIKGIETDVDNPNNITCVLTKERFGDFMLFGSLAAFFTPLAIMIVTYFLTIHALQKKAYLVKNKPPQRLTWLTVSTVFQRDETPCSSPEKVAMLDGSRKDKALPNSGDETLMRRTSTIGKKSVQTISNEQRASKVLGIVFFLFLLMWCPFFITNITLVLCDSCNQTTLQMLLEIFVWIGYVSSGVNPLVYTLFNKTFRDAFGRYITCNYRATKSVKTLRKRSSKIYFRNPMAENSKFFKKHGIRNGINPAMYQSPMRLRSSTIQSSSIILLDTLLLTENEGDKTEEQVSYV

Compound | 5-HT2A BRET Eff % [1, 4] | EC50 [1, 5] [nM] | 5-HT2B BRET Eff % [2] | EC50 ([2]; read-out: 5-HT2B BRET EC50) [nM] | 5-HT2C BRET Eff % [3] [%] | EC50 [3] [nM] | EC50 [1] [nM] | EC50 ([2]; 5-HT2B BRET EC50 (nM)) [nM] | 5-HT2C BRET Eff % [3, 6] [%] | EC50 [3, 7] [nM] | 5-HT2B BRET EC50 (nM) [2] | 5-HT2A BRET EC50 (nM) ([1]; Table 4, relative to 4-hydroxytryptamine, at least three replicate trials)
NCCc1c[nH]c2cccc(O)c12 [4-hydroxytryptamine, reference compound] | 100% | 2.9 | 100% | 0.8 | 99 | 0.35 |  |  |  |  |  | 
Cc1cccc2c(CCN(C)C)c[nH]c12 [7,N,N-TMT] | 80% |  | 36% |  |  |  | 232 | 74 | 79 | 11.7 |  | 
Cc1ccc(O)c2c(CCN(C)C)c[nH]c12 [Compound 1, 3-[2-(Dimethylamino)ethyl]-7-methylindol-4-ol] | 72% |  | inactive |  | 79 | 6.9 | 66 |  |  |  | inactive | 
CN(C)CCc1c[nH]c2c(CCO)ccc(O)c12 [Compound 7, 3-[2-(Dimethylamino)ethyl]-7-(2-hydroxyethyl)indol-4-ol] | 81% | 75 | inactive |  |  |  |  |  | 76 | 5.6 | inactive | 
CN(C)CCc1c[nH]c2c(CCF)ccc(O)c12 [Compound 8, 3-[2-(Dimethylamino)ethyl]-7-(2-fluoroethyl)indol-4-ol] | inactive |  | inactive |  | 56 | 3930 |  |  |  |  | inactive | inactive
CCc1ccc(O)c2c(CCN(C)C)c[nH]c12 [Compound 9, 3-[2-(Dimethylamino)ethyl]-7-ethylindol-4-ol] | 78% |  | inactive |  | 67 | 28 | 154 |  |  |  | inactive | 
CC(C)c1ccc(O)c2c(CCN(C)C)c[nH]c12 [Compound 10, 3-[2-(Dimethylamino)ethyl]-7-isopropylindol-4-ol] | 40% |  | inactive |  | 60 | 34 | 1070 |  |  |  | inactive | 
CC(C)c1ccc(O)c2c(CCN(C)C)cn(C)c12 [Compound 11, 3-[2-(Dimethylamino)ethyl]-7-isopropyl-1-methylindol-4-ol] | 66% |  | inactive |  | 88 | 22 | 1160 |  |  |  | inactive | 
CCN(C)CCc1c[nH]c2c(C)ccc(O)c12 [Compound 14] | 63% |  | inactive |  | 108 | 4.2 | 82 |  |  |  | inactive | 
Cc1ccc(O)c2c(CCN(C)C(C)C)c[nH]c12 [Compound 16, 3-[2-[Isopropyl(methyl)amino]ethyl]-7-methylindol-4-ol] | 77% |  | inactive |  | 103 | 53 | 150 |  |  |  | inactive | 
Cc1ccc(O)c2c(CCN(C)C3CC3)c[nH]c12 [Compound 17] | 54% |  | inactive |  | 111 | 3.2 | 12.9 |  |  |  | inactive | 
Cc1ccc(OP(=O)(O)O)c2c(CCN(C)C)c[nH]c12 [Compound 24] | 69% |  | inactive |  | 69 | 370 | 1150 |  |  |  | inactive | 
